Tests used:
free PSA [1] = target: T1, free PSA (Homo sapiens, UniProt P07288); test: Enzyme activity assay of PSA with chymotrypsin substrate Suc-Arg-Pro-Tyr-pNA; assay type: biochemical; conditions: for minimum peptide concentration affecting the activity: PSA 333 nM
T1 construct: purchased Scripps Laboratories P0725
Method: The enzyme activity of free PSA was studied in the presence of capture agent and the chymotrypsin substrate Suc-Arg-Pro-Tyr-pNA (AnaSpec, San Jose, Calif.) (see, e.g., Wu 2000). PSA (333 nM) was incubated with a 1-100-fold fold molar excess of capture agent in TBS (25 mM Tris, 150 mM NaCl) buffer, pH 7.8, for 1 hour at 23° C. Separately, the inhibitory effect of Zn^2+ on the enzyme activity of PSA was studied by including 1-200 μM ZnCl2 in the reaction buffer as a control. After addition of substrate to a final concentration 0.4 mM, the absorbance was monitored at 5-min intervals over 80 min at 405 nm on a Beckman Coulter DTX880 photometer (Brea, Calif.). Enzyme activity of PSA was tested in the absence of both Zn^2+ and capture agent to provide a measure of basal activity. All assays were performed in triplicate.

free PSA [2] = target: T1, free PSA; test: Dot blot of serially diluted free PSA probed with biotinylated capture agent; assay type: binding; conditions: for lower limit of detection: free PSA on nitrocellulose, 0.1 μM capture agent
Method: Serially diluted free PSA (Scripps Laboratories #P0725) in PBS pH 7.4 was applied to nitrocellulose by micropipette. The membrane was blocked at 4° C. for 2 hours in 5% non-fat dry milk in TBS (25 mM Tris, 150 mM NaCl, pH 7.25). The membrane was washed with TBS (3×). The biotinylated PSA capture agent was prepared at 0.1 μM in 0.5% milk in TBS+0.03% DMSO (v/v) and incubated over the membrane at 4° C. overnight. After washing with TBS (3×), the membrane was further subjected to 0.1 μg/mL HRP-conjugated Streptavidin (Abcam) in TBS containing 0.02% Tween20 (v/v) for 30 min at 4° C.

free PSA [3] = target: T1, free PSA; test: Sandwich ELISA with capture agent as detection agent, paired with PS6 capture antibody; assay type: binding
Method: MAXISORP™ microtiter plates were coated with anti-human PSA (PS6, Abcam) at 10 μg/mL in PBS pH 7.4 for 2 hours at room temperature. After washing each microwell with PBS (3×), the plate was filled with 5% non-fat dry milk in TBS (25 mM Tris, 150 mM NaCl, pH 7.25) and blocked for 2 h at room temperature. Serially diluted free PSA (Scripps Laboratories #P0725) in 1% BSA in TBS was incubated across the microtiter plate for 2 h at room temperature. The plate was washed with 1% BSA in TBS (5×), and then 2 μM biotinylated capture agent in 1% BSA in TBS+0.1% DMSO (v/v) was incubated for 1 hour at room temperature. After washing all microwells with 1% BSA in TBS (5×), 0.1 μg/mL Streptavidin Poly-HRP conjugate (Pierce, Ill.) in 1% BSA in TBS was incubated for 30 min at room temperature. The plate was washed with 1% BSA in TBS (10×), followed by TBS (2×), and then developed by adding QuantaRed™ Enhanced Chemifluorescent HRP Substrate (Pierce, Ill.). Using an excitation wavelength of 535 nm, fluorescent emission at 595 nm was recorded by Beckman Coulter DTX880 photometer (Brea, Calif.) as a function of target concentration. The titration curves were fit using a four-parameter regression curve fitting program (Origin 8.5, Northampton, Mass.). Assays were performed in triplicate.

free PSA [4] = target: T1, free PSA; test: Pull-down assay and Western blot; assay type: binding; conditions: 1 μg free PSA in TBS buffer
Method: The pull-down assay assessed the specificity of a PSA capture agent by measuring its ability to purify a protein from complex media; bound to the protein in buffer or human serum in solution. The PSA/capture agent complex was then physically isolated from the sample with solid-phase affinity resins. The captured samples were separated by SDS-PAGE for Western blot analysis.
Pull-down detection of PSA was performed using a modified immunoprecipitation technique that incorporated PSA capture agent rather than antibody. […] A third sample contained biotinylated PSA capture agent (0.3-0.5 μg/mL) and 1 μg free PSA in 2 mL TBS, and similarly interacted at 4° C. overnight.
Proteins were captured by BSA-blocked Dynabeads® M-280 Streptavidin (Invitrogen, #112-05D) under rotation at 4° C. for 4 hours (50 μL of 50% slurry per pull-down condition). Proteins were eluted from beads in reducing Laemmli buffer, and beads were separated from the serum or buffer by DynaMag™-Spin magnet (Invitrogen, #123-20D). Samples were subjected to 4-20% SDS-PAGE separation and electrophoretically transferred to a nitrocellulose membrane in 25 mM Tris, 192 mM Glycine, pH 8.3, containing 20% (v/v) methanol (Bio-Rad Laboratories, Hercules, Calif.) at 100 V for 45 min. Following transfer, the nitrocellulose membrane was blocked at 4° C. for 2 hours in 5% non-fat dry milk in TBS. […]

T1 sequence (P07288 25-261): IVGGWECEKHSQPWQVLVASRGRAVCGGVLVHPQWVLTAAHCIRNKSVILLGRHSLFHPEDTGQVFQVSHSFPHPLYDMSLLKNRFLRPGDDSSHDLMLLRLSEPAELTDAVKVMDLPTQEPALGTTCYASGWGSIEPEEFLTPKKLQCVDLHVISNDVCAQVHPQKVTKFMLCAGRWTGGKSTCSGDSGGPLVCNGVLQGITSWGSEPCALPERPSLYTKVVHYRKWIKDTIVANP

[Cl-].[Cl-].[Zn+2] [Zn^2+, zinc chloride, reference compound]
inhibition of PSA enzyme activity (free PSA [1]): inhibits the enzyme activity of PSA

biotin-PEG5-cyclic(CVFAHNYDYLVC) [Anchor Ligand]
minimum peptide concentration affecting the activity (free PSA [1]): 0.250 µM

biotin-PEG5-cyclic(CVFAHNYDYLVC)-Tz5-Gllffk [1,5Tz-biligand]
minimum peptide concentration affecting the activity (free PSA [1]): 0.159 µM
limit of detection compared to 1,4Tz-biligand (free PSA [2]; dot blot, triazole regioisomers): improved limit of detection
lower limit of detection (free PSA [2]): 0.14 µg

biotin-PEG5-cyclic(CVFAHNYDYLVC)-Tz5-Gllffk-Tz5-rrivk [PSA capture agent triligand]
limit of quantitation (LOQ) (free PSA [3]; free PSA, sandwich ELISA with PS6 capture antibody): ~4 ng/mL
enhanced sensitivity over the PSA capture agent biligand (free PSA [3]; sandwich ELISA): > 2 fold
pull-down detection of free PSA (free PSA [4]): detected free PSA in buffer
performance compared to anti-human PSA monoclonal antibody PS1 (free PSA [2]; dot blot): superior performance
sensitivity compared to commercial PSA monoclonal antibodies PS2, PS6 (free PSA [2]; dot blot): less sensitive
lower limit of detection (free PSA [2]): 0.14 µg

biotin-PEG5-cyclic(CVFAHNYDYLVC)-Tz-4-Gllffk [1,4Tz-biligand]
lower limit of detection (free PSA [2]): 0.28 µg

Source: patent US8841083B2, “PSA capture agents, compositions, methods and preparation thereof” (California Institute of Technology, priority 2011, dated 2014)
